Legend:
Assay in all cases: Post-emergence test on weeds (greenhouse, spray at 2-3 leaf stage)
Assay type in all cases: in vivo
Parameters in all cases: key: Level 10: completely dead; Level 9: growth control rate greater than or equal to 90% and less than 100%; Level 8: growth control rate greater than or equal to 80% and less than 90%; Level 7: growth control rate greater than or equal to 70% and less than 80%; Level 6: growth control rate greater than or equal to 60% and less than 70%; Level 5: growth control rate greater than or equal to 50% and less than 60%; Level 4: growth control rate greater than or equal to 40% and less than 50%; Level 3: growth control rate greater than or equal to 30% and less than 40%; Level 2: growth control rate greater than or equal to 20% and less than 30%; Level 1: growth control rate less than 20%; Level 0: no effect
Details in all cases: 3 weeks after application
Abutilon theophrasti = system: Abutilon theophrasti
Summary of the method: (§1)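 Greenhouse pot-grown weeds were sprayed by spray tower at the 2-3 leaf stage, about two weeks after sowing, with acetone/Tween 80 solutions plus 1.5 L/ha methyl oleate EC synergist at 500, 250, […], 15 and 7.5 g a.i./ha. Fresh-weight growth control was scored 0-10 after 3 weeks, triplicate averaged.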

Veronica polita = system: Veronica polita
Summary of the method: as §1

Digitaria sanguinalis = system: Digitaria sanguinalis
Summary of the method: as §1

Amaranthus retroflexus = system: Amaranthus retroflexus
Summary of the method: as §1

Echinochloa crus-galli = system: Echinochloa crus-galli
Summary of the method: as §1

Setaria viridis = system: Setaria viridis
Summary of the method: as §1

CCOC(=O)C1(C)ON=C(c2cc(-c3ncc(C(F)(F)F)cc3F)c(F)cc2Cl)O1 (stereo not drawn) [Compound 34]
10: activity level (fresh weight growth control rate), Abutilon theophrasti (Abutilon theophrasti; 60 g a.i./ha) | activity level (fresh weight growth control rate), Veronica polita (Veronica polita; 60 g a.i./ha) | activity level (fresh weight growth control rate), Digitaria sanguinalis (Digitaria sanguinalis; 60 g a.i./ha) | activity level (fresh weight growth control rate), Amaranthus retroflexus (Amaranthus retroflexus; 60 g a.i./ha) | activity level (fresh weight growth control rate), Echinochloa crus-galli (Echinochloa crus-galli; 60 g a.i./ha) | activity level (fresh weight growth control rate), Setaria viridis (Setaria viridis; 60 g a.i./ha)

CCOC(=O)C1(C)ON=C(c2cc(-c3ncc(F)cc3Cl)c(F)cc2Cl)O1 (stereo not drawn) [Compound 35]
10: activity level (fresh weight growth control rate), Abutilon theophrasti (Abutilon theophrasti; 60 g a.i./ha) | activity level (fresh weight growth control rate), Veronica polita (Veronica polita; 60 g a.i./ha) | activity level (fresh weight growth control rate), Digitaria sanguinalis (Digitaria sanguinalis; 60 g a.i./ha) | activity level (fresh weight growth control rate), Amaranthus retroflexus (Amaranthus retroflexus; 60 g a.i./ha) | activity level (fresh weight growth control rate), Echinochloa crus-galli (Echinochloa crus-galli; 60 g a.i./ha) | activity level (fresh weight growth control rate), Setaria viridis (Setaria viridis; 60 g a.i./ha)

CCOC(=O)C1(C)ON=C(c2cc(-c3ncc(C(F)(F)F)cc3Cl)c(F)cc2Cl)O1 (stereo not drawn) [Compound 39]
10: activity level (fresh weight growth control rate), Abutilon theophrasti (Abutilon theophrasti; 15 g a.i./ha) | activity level (fresh weight growth control rate), Veronica polita (Veronica polita; 15 g a.i./ha) | activity level (fresh weight growth control rate), Digitaria sanguinalis (Digitaria sanguinalis; 15 g a.i./ha) | activity level (fresh weight growth control rate), Amaranthus retroflexus (Amaranthus retroflexus; 15 g a.i./ha) | activity level (fresh weight growth control rate), Echinochloa crus-galli (Echinochloa crus-galli; 15 g a.i./ha) | activity level (fresh weight growth control rate), Setaria viridis (Setaria viridis; 15 g a.i./ha)

CCOC(=O)C1(C)ON=C(c2cc(-c3ncc(Cl)cc3Cl)c(F)cc2Cl)O1 (stereo not drawn) [Compound 40]
10: activity level (fresh weight growth control rate), Abutilon theophrasti (Abutilon theophrasti; 60 g a.i./ha) | activity level (fresh weight growth control rate), Veronica polita (Veronica polita; 60 g a.i./ha) | activity level (fresh weight growth control rate), Digitaria sanguinalis (Digitaria sanguinalis; 60 g a.i./ha) | activity level (fresh weight growth control rate), Amaranthus retroflexus (Amaranthus retroflexus; 60 g a.i./ha) | activity level (fresh weight growth control rate), Echinochloa crus-galli (Echinochloa crus-galli; 60 g a.i./ha) | activity level (fresh weight growth control rate), Setaria viridis (Setaria viridis; 60 g a.i./ha)

CCOC(=O)C1(C)ON=C(c2cc(-c3ncc(C(F)(F)F)cc3Cl)c(F)cc2C(F)(F)F)O1 (stereo not drawn) [Compound 54]
10: activity level (fresh weight growth control rate), Abutilon theophrasti (Abutilon theophrasti; 60 g a.i./ha) | activity level (fresh weight growth control rate), Veronica polita (Veronica polita; 60 g a.i./ha) | activity level (fresh weight growth control rate), Digitaria sanguinalis (Digitaria sanguinalis; 60 g a.i./ha) | activity level (fresh weight growth control rate), Amaranthus retroflexus (Amaranthus retroflexus; 60 g a.i./ha) | activity level (fresh weight growth control rate), Echinochloa crus-galli (Echinochloa crus-galli; 60 g a.i./ha) | activity level (fresh weight growth control rate), Setaria viridis (Setaria viridis; 60 g a.i./ha)

CCOC(=O)C1(C)ON=C(c2cc(-c3ncc(C(F)(F)F)cc3Cl)c(F)cc2C#N)O1 (stereo not drawn) [Compound 56]
10: activity level (fresh weight growth control rate), Abutilon theophrasti (Abutilon theophrasti; 60 g a.i./ha) | activity level (fresh weight growth control rate), Veronica polita (Veronica polita; 60 g a.i./ha) | activity level (fresh weight growth control rate), Digitaria sanguinalis (Digitaria sanguinalis; 60 g a.i./ha) | activity level (fresh weight growth control rate), Amaranthus retroflexus (Amaranthus retroflexus; 60 g a.i./ha) | activity level (fresh weight growth control rate), Echinochloa crus-galli (Echinochloa crus-galli; 60 g a.i./ha) | activity level (fresh weight growth control rate), Setaria viridis (Setaria viridis; 60 g a.i./ha)

CCOC(=O)C1(CC)ON=C(c2cc(-c3ncc(C(F)(F)F)cc3F)c(F)cc2Cl)O1 (stereo not drawn) [Compound 58]
10: activity level (fresh weight growth control rate), Abutilon theophrasti (Abutilon theophrasti; 60 g a.i./ha) | activity level (fresh weight growth control rate), Veronica polita (Veronica polita; 60 g a.i./ha) | activity level (fresh weight growth control rate), Digitaria sanguinalis (Digitaria sanguinalis; 60 g a.i./ha) | activity level (fresh weight growth control rate), Amaranthus retroflexus (Amaranthus retroflexus; 60 g a.i./ha) | activity level (fresh weight growth control rate), Echinochloa crus-galli (Echinochloa crus-galli; 60 g a.i./ha) | activity level (fresh weight growth control rate), Setaria viridis (Setaria viridis; 60 g a.i./ha)

CCOC(=O)C1(C(F)(F)F)ON=C(c2cc(-c3ncc(C(F)(F)F)cc3Cl)c(F)cc2Cl)O1 (stereo not drawn) [Compound 62]
10: activity level (fresh weight growth control rate), Abutilon theophrasti (Abutilon theophrasti; 60 g a.i./ha) | activity level (fresh weight growth control rate), Veronica polita (Veronica polita; 60 g a.i./ha) | activity level (fresh weight growth control rate), Digitaria sanguinalis (Digitaria sanguinalis; 60 g a.i./ha) | activity level (fresh weight growth control rate), Amaranthus retroflexus (Amaranthus retroflexus; 60 g a.i./ha) | activity level (fresh weight growth control rate), Echinochloa crus-galli (Echinochloa crus-galli; 60 g a.i./ha) | activity level (fresh weight growth control rate), Setaria viridis (Setaria viridis; 60 g a.i./ha)

CCOC(=O)C1(C2CC2)ON=C(c2cc(-c3ncc(C(F)(F)F)cc3Cl)c(F)cc2Cl)O1 (stereo not drawn) [Compound 79]
10: activity level (fresh weight growth control rate), Abutilon theophrasti (Abutilon theophrasti; 60 g a.i./ha) | activity level (fresh weight growth control rate), Veronica polita (Veronica polita; 60 g a.i./ha) | activity level (fresh weight growth control rate), Digitaria sanguinalis (Digitaria sanguinalis; 60 g a.i./ha) | activity level (fresh weight growth control rate), Amaranthus retroflexus (Amaranthus retroflexus; 60 g a.i./ha) | activity level (fresh weight growth control rate), Echinochloa crus-galli (Echinochloa crus-galli; 60 g a.i./ha) | activity level (fresh weight growth control rate), Setaria viridis (Setaria viridis; 60 g a.i./ha)

CCSC(=O)C1(C)ON=C(c2cc(-c3ncc(C(F)(F)F)cc3Cl)c(F)cc2Cl)O1 (stereo not drawn) [Compound 85]
10: activity level (fresh weight growth control rate), Abutilon theophrasti (Abutilon theophrasti; 60 g a.i./ha) | activity level (fresh weight growth control rate), Veronica polita (Veronica polita; 60 g a.i./ha) | activity level (fresh weight growth control rate), Digitaria sanguinalis (Digitaria sanguinalis; 60 g a.i./ha) | activity level (fresh weight growth control rate), Amaranthus retroflexus (Amaranthus retroflexus; 60 g a.i./ha) | activity level (fresh weight growth control rate), Echinochloa crus-galli (Echinochloa crus-galli; 60 g a.i./ha) | activity level (fresh weight growth control rate), Setaria viridis (Setaria viridis; 60 g a.i./ha)

CCCOC(=O)C1(C)ON=C(c2cc(-c3ncc(C(F)(F)F)cc3Cl)c(F)cc2Cl)O1 (stereo not drawn) [Compound 86]
10: activity level (fresh weight growth control rate), Abutilon theophrasti (Abutilon theophrasti; 60 g a.i./ha) | activity level (fresh weight growth control rate), Veronica polita (Veronica polita; 60 g a.i./ha) | activity level (fresh weight growth control rate), Digitaria sanguinalis (Digitaria sanguinalis; 60 g a.i./ha) | activity level (fresh weight growth control rate), Amaranthus retroflexus (Amaranthus retroflexus; 60 g a.i./ha) | activity level (fresh weight growth control rate), Echinochloa crus-galli (Echinochloa crus-galli; 60 g a.i./ha) | activity level (fresh weight growth control rate), Setaria viridis (Setaria viridis; 60 g a.i./ha)

CCCOC(=O)C1(C)ON=C(c2cc(-c3ncc(Cl)cc3Cl)c(F)cc2Cl)O1 (stereo not drawn) [Compound 87]
10: activity level (fresh weight growth control rate), Abutilon theophrasti (Abutilon theophrasti; 60 g a.i./ha) | activity level (fresh weight growth control rate), Veronica polita (Veronica polita; 60 g a.i./ha) | activity level (fresh weight growth control rate), Digitaria sanguinalis (Digitaria sanguinalis; 60 g a.i./ha) | activity level (fresh weight growth control rate), Amaranthus retroflexus (Amaranthus retroflexus; 60 g a.i./ha) | activity level (fresh weight growth control rate), Echinochloa crus-galli (Echinochloa crus-galli; 60 g a.i./ha) | activity level (fresh weight growth control rate), Setaria viridis (Setaria viridis; 60 g a.i./ha)

CC(C)OC(=O)C1(C)ON=C(c2cc(-c3ncc(C(F)(F)F)cc3Cl)c(F)cc2Cl)O1 (stereo not drawn) [Compound 88]
10: activity level (fresh weight growth control rate), Abutilon theophrasti (Abutilon theophrasti; 60 g a.i./ha) | activity level (fresh weight growth control rate), Veronica polita (Veronica polita; 60 g a.i./ha) | activity level (fresh weight growth control rate), Digitaria sanguinalis (Digitaria sanguinalis; 60 g a.i./ha) | activity level (fresh weight growth control rate), Amaranthus retroflexus (Amaranthus retroflexus; 60 g a.i./ha) | activity level (fresh weight growth control rate), Echinochloa crus-galli (Echinochloa crus-galli; 60 g a.i./ha) | activity level (fresh weight growth control rate), Setaria viridis (Setaria viridis; 60 g a.i./ha)

CCCCOC(=O)C1(C)ON=C(c2cc(-c3ncc(C(F)(F)F)cc3Cl)c(F)cc2Cl)O1 (stereo not drawn) [Compound 89]
10: activity level (fresh weight growth control rate), Abutilon theophrasti (Abutilon theophrasti; 60 g a.i./ha) | activity level (fresh weight growth control rate), Veronica polita (Veronica polita; 60 g a.i./ha) | activity level (fresh weight growth control rate), Digitaria sanguinalis (Digitaria sanguinalis; 60 g a.i./ha) | activity level (fresh weight growth control rate), Amaranthus retroflexus (Amaranthus retroflexus; 60 g a.i./ha) | activity level (fresh weight growth control rate), Echinochloa crus-galli (Echinochloa crus-galli; 60 g a.i./ha) | activity level (fresh weight growth control rate), Setaria viridis (Setaria viridis; 60 g a.i./ha)

C=CCOC(=O)C1(C)ON=C(c2cc(-c3ncc(C(F)(F)F)cc3Cl)c(F)cc2Cl)O1 (stereo not drawn) [Compound 93]
10: activity level (fresh weight growth control rate), Abutilon theophrasti (Abutilon theophrasti; 60 g a.i./ha) | activity level (fresh weight growth control rate), Veronica polita (Veronica polita; 60 g a.i./ha) | activity level (fresh weight growth control rate), Digitaria sanguinalis (Digitaria sanguinalis; 60 g a.i./ha) | activity level (fresh weight growth control rate), Amaranthus retroflexus (Amaranthus retroflexus; 60 g a.i./ha) | activity level (fresh weight growth control rate), Echinochloa crus-galli (Echinochloa crus-galli; 60 g a.i./ha) | activity level (fresh weight growth control rate), Setaria viridis (Setaria viridis; 60 g a.i./ha)

CC(C)=CCOC(=O)C1(C)ON=C(c2cc(-c3ncc(C(F)(F)F)cc3Cl)c(F)cc2Cl)O1 (stereo not drawn) [Compound 96]
10: activity level (fresh weight growth control rate), Abutilon theophrasti (Abutilon theophrasti; 60 g a.i./ha) | activity level (fresh weight growth control rate), Veronica polita (Veronica polita; 60 g a.i./ha) | activity level (fresh weight growth control rate), Digitaria sanguinalis (Digitaria sanguinalis; 60 g a.i./ha) | activity level (fresh weight growth control rate), Amaranthus retroflexus (Amaranthus retroflexus; 60 g a.i./ha) | activity level (fresh weight growth control rate), Echinochloa crus-galli (Echinochloa crus-galli; 60 g a.i./ha) | activity level (fresh weight growth control rate), Setaria viridis (Setaria viridis; 60 g a.i./ha)

From patent publication US20250206727A1, “HETEROCYCLIC SUBSTITUTED AROMATIC COMPOUND, PREPARATION METHOD THEREFOR, HERBICIDAL COMPOSITION AND APPLICATION” (QINGDAO KINGAGROOT CHEMICAL COMPOUND CO., LTD., priority 2022, published 2025)
